Assay results: patent US8455475B2 (Gruenenthal GmbH, priority 2009, dated 2013)

Legend:
[1] = target: T1, rat B1R (bradykinin receptor 1) (Rattus norvegicus, UniProt P97583); experiment: FLIPR Ca2+ assay (Fluo-4) on CHO K1 cells stably transfected with the B1R gene of the rat (rB1R cells): % inhibition at 10 μM / IC50, agonist Des-Arg9-bradykinin; format: cell-based; details: for inhibition at 10 µM: CHO-K1, rat B1R
T1 construct: expressed in transfected cells; host or cells: CHO K1 cells
T1 sequence (P97583 1-337): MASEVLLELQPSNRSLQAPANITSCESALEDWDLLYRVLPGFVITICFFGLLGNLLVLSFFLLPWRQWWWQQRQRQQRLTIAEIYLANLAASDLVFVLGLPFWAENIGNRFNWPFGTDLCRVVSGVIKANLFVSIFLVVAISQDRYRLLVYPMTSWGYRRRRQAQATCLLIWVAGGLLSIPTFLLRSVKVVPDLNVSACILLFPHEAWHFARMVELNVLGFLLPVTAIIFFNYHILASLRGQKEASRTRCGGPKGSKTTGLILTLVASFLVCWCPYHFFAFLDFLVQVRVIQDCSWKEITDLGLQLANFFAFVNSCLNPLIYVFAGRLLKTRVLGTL
How it was run: (§1)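 Antagonism is measured as the drop in peak Fluo-4 Ca2+ signal when the EC80 agonist follows 10–20 min compound exposure. The single-point screen uses 10 μM; IC50 uses several concentrations. Values are given as % of maximal achievable inhibition.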

[2] = target: T2, human B1R (bradykinin receptor 1) (Homo sapiens, UniProt P46663); experiment: FLIPR Ca2+ assay (Fluo-4) on CHO K1 cells stably transfected with the human B1R gene (hB1R cells): % inhibition at 10 μM / IC50, agonist Lys-Des-Arg9-bradykinin; format: cell-based; details: for inhibition at 10 µM: CHO-K1, human B1R
T2 construct: expressed in transfected cells; host or cells: CHO K1 cells
T2 sequence (P46663 1-353): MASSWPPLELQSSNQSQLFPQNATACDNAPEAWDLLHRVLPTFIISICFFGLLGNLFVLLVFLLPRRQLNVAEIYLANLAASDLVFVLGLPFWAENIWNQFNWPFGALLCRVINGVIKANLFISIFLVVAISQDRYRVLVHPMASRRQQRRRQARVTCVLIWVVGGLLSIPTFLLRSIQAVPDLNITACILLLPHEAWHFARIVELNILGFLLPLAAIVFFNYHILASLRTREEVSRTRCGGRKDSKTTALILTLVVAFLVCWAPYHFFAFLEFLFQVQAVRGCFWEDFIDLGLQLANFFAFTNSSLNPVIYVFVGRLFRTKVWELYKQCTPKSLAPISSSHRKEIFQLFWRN
How it was run: as §1

Molecule | inhibition at 10 µM [1] [%] | inhibition at 10 µM [2] [%] | % Inhibition (rat B1R) at 10 μM [1] [%] | % Inhibition (human B1R) at 10 μM [2] [%] | % Inhibition (rat B1R) at 10 μM ([1]; 10 µM) [%]
O=C(N[C@H]1CCc2cc(C(=O)N3CCC4(CCN(c5ccncc5)CC4)C3)ccc21)c1ccccc1Cl [Example H-155] | 100 | 87 | – | – | –
O=C(c1ccc2c(c1)[C@H](NS(=O)(=O)c1ccccc1Cl)CCC2)N1CCC2(CCN(c3ccncc3)CC2)C1 [Example H-106, 2-Chloro-N-[(1R)-7-(8-pyridin-4-yl-3,8-diazaspiro[4.5]decane-3-carbonyl)-1,2,3,4-tetrahydro-naphthalen-1-yl]-benzenesulfonic acid amide] | 105 | 100 | – | – | –
O=C(NC1CCc2ccc(C(=O)N3CCC4(CCN(c5ccncc5)CC4)C3)cc21)c1cccc(C(F)(F)F)c1Cl (stereo not shown) [IND_CC-255, 2-Chloro-N-[6-(8-pyridin-4-yl-2,8-diazaspiro[4.5]decane-2-carbonyl)-2,3-dihydro-1H-inden-1-yl]-3-(trifluoromethyl)-benzamide] | 100 | 100 | – | – | –
O=C(NC1CCc2ccc(C(=O)N3CCC4(CC3)CCN(c3ccncc3)CC4)cc21)c1ccc(Cl)cc1Cl (stereo not shown) [Ind_CC-006, 2,4-dichloro-N-[6-(9-pyridin-4-yl-3,9-diazaspiro[5.5]undecane-3-carbonyl)-2,3-dihydro-1H-inden-1-yl]-benzamide] | 98 | 98 | – | – | –
2-Chloro-N-[2,2-dimethyl-6-(9-pyridin-4-yl-3,9-diazaspiro[5.5]undecane-3-carbonyl)-1,3-dihydro-inden-1-yl]-3-(trifluoromethyl)-benzamide [IND_CC-234] | – | – | 99 | 85 | –
O=C(N[C@@H]1CCc2c(C(=O)N3CCC4(CC3)CCN(c3ccncc3)CC4)cccc21)c1ccccc1Cl [Example H-164, 2-Chloro-N-[(1R)-4-(9-pyridin-4-yl-3,9-diazaspiro[5.5]undecane-3-carbonyl)-2,3-dihydro-1H-inden-1-yl]-benzamide] | 77 | 25 | – | – | –
O=C(NC1CCc2ccc(C(=O)N3CCC4(CC3)CCN(c3ccncc3)CC4)cc21)c1cc(Cl)ccc1Cl (stereo not shown) [IND_CC-207, 2,5-Dichloro-N-[6-(9-pyridin-4-yl-3,9-diazaspiro[5.5]undecane-3-carbonyl)-2,3-dihydro-1H-inden-1-yl]-benzamide] | 101 | 98 | – | – | –
O=C(NC1CCc2ccc(C(=O)N3CCC4(CC3)CCN(c3ccncc3)CC4)cc21)C(c1ccccc1)c1ccccc1Cl (stereo not shown) [Ind_CC-009, 2-(2-chlorophenyl)-2-phenyl-N-[6-(9-pyridin-4-yl-3,9-diazaspiro[5.5]undecane-3-carbonyl)-2,3-dihydro-1H-inden-1-yl]-acetamide] | 99 | 87 | – | – | –
O=C(N[C@@H]1CCc2ccc(C(=O)N3CCC4(CCN(c5ccncc5)CC4)C3)cc21)c1c(F)cccc1Cl [Example H-109, 2-Chloro-6-fluoro-N-[(1R)-6-(8-pyridin-4-yl-3,8-diazaspiro[4.5]decane-3-carbonyl)-2,3-dihydro-1H-inden-1-yl]-benzamide] | 109 | 100 | – | – | –
Cc1ccc(F)c(C(=O)NC2CCc3ccc(C(=O)N4CCC5(CCN(c6ccncc6)CC5)C4)cc32)c1Cl (stereo not shown) [IND_CC-249, 2-Chloro-6-fluoro-3-methyl-N-[6-(8-pyridin-4-yl-2,8-diazaspiro[4.5]decane-2-carbonyl)-2,3-dihydro-1H-inden-1-yl]-benzamide] | 99 | 99 | – | – | –
O=C(NC1CCc2ccc(C(=O)N3CCC4(CCN(c5ccncc5)CC4)C3)cc21)c1ccccc1Cl (stereo not shown) [IND_CC-293, 2-Chloro-N-[6-(8-pyridin-4-yl-2,8-diazaspiro[4.5]decane-2-carbonyl)-2,3-dihydro-1H-inden-1-yl]-benzamide] | – | – | – | 100 | 106
O=C(NC1CCc2ccc(C(=O)N3CCC4(CCN(Cc5ccncc5)CC4)CC3)cc21)c1sccc1Cl (stereo not shown) [Ind_CC-104, 3-chloro-N-[6-[9-(pyridin-4-yl-methyl)-3,9-diazaspiro[5.5]undecane-3-carbonyl]-2,3-dihydro-1H-inden-1-yl]-thiophene-2-carboxylic acid amide] | 102 | 33 | – | – | –
Cc1cccc(C)c1C(=O)NC1CCc2ccc(C(=O)N3CCC4(CC3)CCN(c3ccncc3)CC4)cc21 (stereo not shown) [IND_CC-294, 2,6-Dimethyl-N-[6-(9-pyridin-4-yl-3,9-diazaspiro[5.5]undecane-3-carbonyl)-2,3-dihydro-1H-inden-1-yl]-benzamide] | 105 | 99 | – | – | –
COc1cc(C)c(C(=O)NC2CCc3ccc(C(=O)N4CCC5(CC4)CCN(c4ccc(F)cc4)CC5)cc32)c(C)c1 (stereo not shown) [Ind_CC-091, N-[6-[9-(4-fluorophenyl)-3,9-diazaspiro[5.5]undecane-3-carbonyl]-2,3-dihydro-1H-inden-1-yl]-4-methoxy-2,6-dimethyl-benzamide] | 50 | 24 | – | – | –
O=C(NC1CCc2ccc(C(=O)N3CCCC4(CC3)CCN(c3ccncc3)CC4)cc21)c1ccccc1Cl (stereo not shown) [Example H-138, 2-Chloro-N-[6-(3-pyridin-4-yl-3,10-diazaspiro[5.6]dodecane-10-carbonyl)-2,3-dihydro-1H-inden-1-yl]-benzamide] | 102 | 100 | – | – | –
Cc1ccccc1S(=O)(=O)N[C@@H]1CCc2ccc(C(=O)N3CCC4(CCN(c5ccncc5)CC4)C3)cc21 [Example H-117, 2-Methyl-N-[(1R)-6-(8-pyridin-4-yl-3,8-diazaspiro[4.5]decane-3-carbonyl)-2,3-dihydro-1H-inden-1-yl]-benzensulfonic acid amide] | 101 | 100 | – | – | –
O=C(NC1CCc2ccc(C(=O)N3CCC4(CC3)CCN(c3ccncc3)CC4)cc21)c1ccc(F)cc1Cl (stereo not shown) [IND_CC-262, 2-Chloro-4-fluoro-N-[6-(9-pyridin-4-yl-3,9-diazaspiro[5.5]undecane-3-carbonyl)-2,3-dihydro-1H-inden-1-yl]-benzamide] | 105 | 100 | – | – | –
COc1cc(C)c(S(=O)(=O)NC2CCc3ccc(C(=O)N4CCC5(CC4)CCN(c4ccncc4)C5)cc32)c(C)c1 (stereo not shown) [Ind_CC-050, 4-methoxy-2,6-dimethyl-N-[6-(2-pyridin-4-yl-2,8-diazaspiro[4.5]decane-8-carbonyl)-2,3-dihydro-1H-inden-1-yl]-benzenesulfonic acid amide] | 93 | 100 | – | – | –
O=C(NCc1ccccc1Cl)NC1CCc2ccc(C(=O)N3CCC4(CC3)CCN(c3ccncc3)C4)cc21 (stereo not shown) [Ind_CC-048, 1-[(2-chlorophenyl)-methyl]-3-[6-(2-pyridin-4-yl-2,8-diazaspiro[4.5]decane-8-carbonyl)-2,3-dihydro-1H-inden-1-yl]-urea] | 88 | 98 | – | – | –
CC1(C)CC(NC(=O)c2c(F)cccc2Cl)c2cc(C(=O)N3CCC4(CC3)CCN(c3ccncc3)CC4)ccc21 (stereo not shown) [IND_CC-279, 2-Chloro-N-[3,3-dimethyl-6-(3-pyridin-4-yl-3,9-diazaspiro[5.5]undecane-9-carbonyl)-1,2-dihydro-inden-1-yl]-6-fluoro-benzamide] | 106 | 100 | – | – | –
